Data taken from US7276490B1, “Medicinal compositions containing prostacylin synthase gene” (priority 2000, dated 2007).

Legend:
HEK-293 cells [1] = assay: Double-staining with anti-PGIS antibody and Hoechst 33258 (chromatin condensation); type: cell-based, human; conditions: 100 μM; HEK-293 cells expressing PGIS; data not shown
Procedure: Cultured monolayer cells of human fetal kidney-derived HEK-293 cell line (ATCC CRL-1573) were harvested and plated in Dulbecco's modified Eagle's medium containing 10% bovine fetal serum (FBS), 100 U/ml penicillin, and […] streptomycin (3×10^5 cells/60-mm dish). 24 hours after incubation, the cells were transfected with 3 μg of any one of PGISwt (described below), PGISC441A (described below), or control vector pCMV7 (generous gift from Texas University; Andersson, S. et al., J. Biol. Chem., 264, 8222-8229 (1989): this can be replaced with pcDNA3 (Invitrogen; catalogue number: #A-150228)) and […] of pvA (plasmid encoding adenovirus-associated RNA1) using LipofectAMINE (Gibco-BRL). 5 hours after transfection, the cells were rinsed twice with phosphate-buffered physiological saline (PBS), and the fresh medium was added thereto. After gene transfer, the cells were cultured for 48 to 60 hours in total. Then, the cells were rinsed with PBS, and fixed with 3.7% formaldehyde for 10 minutes. The cells fixed were washed three times with PBS, and then incubated with the anti-PGIS antibody P4 for 2 hours. After being washed three times with PBS containing 2% FBS, the cells were incubated with anti-rabbit Ig-Texas Red at 37° C. for 1 hour and stained with […] Hoechst 33258 at room temperature for 15 minutes.

recombinant PPAR = conditions: added to medium; cited from earlier work
HEK-293 cells [2] = assay: Apoptosis assay: X-Gal staining of β-galactosidase co-transfected cells, apoptotic morphology; type: cell-based, human; conditions: for induction/enhancement of apoptosis by treatment with the agent: various concentrations (1, 10, 100 μM) in serum-free medium, cells expressing β-galactosidase and PGISwt or PGISC441A; for effect of oligonucleotide on prostacyclin-mediated apoptosis: HEK-293, HVJ-liposome method
Procedure: Cells were transfected with 1.0 μg of β-galactosidase expression vector using LipofectAMINE. After a fixed time, the cells were stained with X-Gal to evaluate the cells for apoptotic morphology. Apoptosis was monitored with ApoAlert caspase assay kit using Ac-DEVD-AFC substrate (Clontech). The activity was determined by using lysate pretreated with. Ac-DEVD-CHO as a control according to the supplier's instructions. The caspase activity is defined as a ratio between the caspase activity of a sample and that of lysate prepared from HEK-293 cells mock-transfected with a control plasmid.
To strictly ascertain the relationship between the expression of PGIS and apoptosis, HEK-293 cells were co-transfected with two types of expression constructs for human PGISwt and β-galactosidase. Because normal HEK-293 cells have flat morphology, it is easy to assess the cells for apoptotic changes characterized by membrane vesicle formation and cell body shrinkage. After incubation for a predetermined time following transfection, cells were stained with X-gal for β-galactosidase activity to identify cells containing the transgenes and then assessed for the apoptotic morphology. […] In HEK-293 cells, apoptosis was induced only by the expression of PGISwt without the presence of co-expression of COX-2 (FIGS. 4a and 5). The co-expression of COX-2 with PGISwt increased the number of apoptotic cells (16%). […] The level of 6-keto-PGF1α released into culture medium was correlated with the frequency of apoptosis (FIG. 6). […] Neither co-expression of PGISC441A and COX-2 nor further addition of arachidonic acid gave influence on the production 6-keto-PGF1α and morphological changes (FIGS. 5 and 6). These findings clearly indicate that prostacyclin produced by active PGIS participates in the process of apoptosis.

cAMP = assay: Intracellular level of cAMP accumulated in transfected cells; type: cell-based, human; conditions: Iloprost at various concentrations, serum-free medium
Procedure: FIG. 8 illustrates a diagram showing the intracellular level of cAMP accumulated in cells in serum-free medium containing Iloprost at the concentrations indicated (0, 1, 10, or 100 μM). The cells were transfected with expression plasmids for PGISwt, PGISC441A, or a mock control expression plasmid and β-galactosidase expression plasmid. After 17 hours, the medium was changed with serum-free medium containing Iloprost at various concentrations (0, 1, 10, or 100 μm). All results were obtained from three sets of experiments (n=3) and are presented as mean±S.D.

PPAR = assay: PPREx3-luciferase assay in HEK-293 cells; type: cell-based, human
Text: The sense oligonucleotide […] CTC (SEQ ID NO: 7) and antisense oligonucleotide […] A (which contains three copies of PPRE; SEQ ID NO: 8) were synthesized and annealed together; the resulting double-stranded DNA was subcloned into PGL3-promoter vector (Promega) at the MluI-XhoI site. PPREx3-luciferase reporter vector and β-galactosidase expression vector were co-transfected into HEK-293 cells using LipofectAMINE. The activity of β-galactosidase was normalized with absorbance at 405 nm.

HEK-293 cells [3] = assay: Distribution of 3H-Iloprost in membrane, cytosol and nuclear fractions; type: in vitro ADME, human; conditions: 100 μM 3H-Iloprost, 24 hours
Procedure: FIG. 14 is a diagram showing the influence of the expression of PGIS on PPAR activation. The permeability of Iloprost was evaluated by using ^3H-Iloprost. HEK-293 cells were cultured in DMEM containing 100 μM ^3H-Iloprost for 24 hours. Cell membrane, cytosol, and nuclear fractions were prepared from the cells, and then the distribution of ^3H-Iloprost was determined using the fractions. The results were obtained from three sets of experiments (n=3) and are presented as mean±S.D.

HEK-293 cells [4] = assay: Apoptosis assay: X-Gal staining of β-galactosidase co-transfected cells, apoptotic morphology; type: cell-based, human; conditions: HEK-293, HVJ-liposome method
PPAR-δ = assay: Immunoblot of PPAR-δ after oligonucleotide transfection (HVJ-liposome method); type: cell-based, human; conditions: after 48 hours
Text: A lysate prepared from cells transfected with the PPAR-δ antisense oligonucleotide (AS) was immuno-blotted using an anti-PPAR-δ monoclonal antibody; a sense oligonucleotide (S) was used as a control.
dS, which corresponds to human PPAR-δ cDNA sense sequence: 5′-CTCGGTGACTTATCCTGTG-3′ (SEQ ID NO: 3); dAS, which corresponds to human PPAR-δ cDNA antisense sequence: 5′-TCCTCTTTCTCCTCCTCTT-3′ (SEQ ID NO: 4); aS, which corresponds to human PPAR-α cDNA sense sequence: 5′-CTCGGTGACTTATCCTGTG-3′ (SEQ ID NO: 5); and aAS, which corresponds to human PPAR-α cDNA antisense sequence: 5′-CACAGGATAAGTCACCGAG-3′ (SEQ ID NO: 6). These oligonucleotides were transfected into cells by HVJ-liposome method. Each oligonucleotide (22 μg) was combined with a nuclear protein and high mobility group (HMG)-1. HVJ-liposome was prepared by combining dry lipid (phosphatidyl serine/phosphatidyl choline/cholesterol (1:4.8:2 w/w/w)) with ultraviolet light-inactivated HVJ virus (viruses). After incubation and centrifugation with a sucrose-density gradient, the top layer was collected for transfection. 48 hours after transfection, cells in which the expression of endogenous PPAR-δ had been suppressed were used in PPREx3-luciferase assay and apoptosis assay.

For `CCCCC[C@H](O)/C=C/[C@@H]1[C@@H](C/C=C\CCCC(=O)O)[C@H]2CO[C@@H]1C2` [U46619], the “Hoechst 33258-positive cells” value (HEK-293 cells [1]) was 32%.

For `CCCCC[C@H](O)/C=C/[C@@H]1[C@H]2C/C(=C/CCCC(=O)O)O[C@H]2C[C@H]1O` [prostacyclin], the “activation of recombinant PPAR overexpressed in CV-1 cells” value (recombinant PPAR) is listed as “could not activate”.

For `CCCC(=O)Nc1ncnc2c1ncn2[C@@H]1O[C@@H]2COP(=O)(O)O[C@H]2[C@H]1OC(=O)CCC` [dbcAMP, dibutyryl-cAMP], the “induction/enhancement of apoptosis by treatment with the agent” value (HEK-293 cells [2]) was “apoptosis was not enhanced”.

For `CC#CCC(C)[C@H](O)/C=C/[C@@H]1[C@H]2C/C(=C/CCCC(=O)O)C[C@H]2C[C@H]1O` (some centres unmarked) [Iloprost], the “activation of recombinant PPAR overexpressed in CV-1 cells” value (recombinant PPAR) is given as “results in activation”, the “intracellular cAMP” value (cAMP) is given as “accumulated” and the “activity of PPRE-luciferase on treatment” value (PPAR; 1 to 100 μM added to medium, endogenous PPAR) is given as “could not increase”. For the same molecule, the “Iloprost taken up by HEK-293 cells” value (HEK-293 cells [3]) was “very little”, the “share of the Iloprost incorporated that is localized on cell membrane” value (HEK-293 cells [3]) was > 99% and the “induction/enhancement of apoptosis by treatment with the agent” value (HEK-293 cells [2]) was “apoptosis was not induced”.

In the case of `CCCCC/C=C\C/C=C\C/C=C\C/C=C\CCCC(=O)O` [arachidonic acid], the “apoptosis on addition to the medium” value (HEK-293 cells [2]; HEK-293 cells expressing both PGISwt and COX-2) is reported as “induction of apoptosis in almost all the cells”.

With “5′-TCCTCTTTCTCCTCCTCTT-3′ (listed as DNA, chemistry not given here) [PPAR-δ antisense oligonucleotide]” the “activity of luciferase co-expressed with PGISwt in oligonucleotide-treated cells” value (PPAR; HEK-293) was “significantly decreased”, the “changes in the oligonucleotide-treated cells (viability, morphology)” value (“changes … (viability, morphology)” below) (HEK-293 cells [4]) was “normal morphology” and the “number of cells after oligonucleotide treatment” value (HEK-293 cells [4]) was “increased”. The “production of PPAR-δ protein” value (PPAR-δ) was “suppressed” and the “effect of oligonucleotide on prostacyclin-mediated apoptosis” value (HEK-293 cells [2]) was “significantly blocked”.

In the case of `CC1CNCCN1S(=O)(=O)c1cccc2cnccc12` (centres unmarked) [H-7], the “effect on prostacyclin-mediated apoptosis” value (HEK-293 cells [2]; H-7 1, 10, 100 μM in serum-free medium, FIG. 10) is reported as “did not block but enhanced”.

In the case of `CC(=O)Oc1ccccc1C(=O)O` [aspirin], the “Hoechst 33258-positive cells” value (HEK-293 cells [1]) is reported as 48%.

For “5′-CACAGGATAAGTCACCGAG-3′ (listed as DNA, chemistry not given here) [antisense oligonucleotide PPAR-α]”, the “changes … (viability, morphology)” value (HEK-293 cells [4]) was “cell viability declined” and the “effect of oligonucleotide on prostacyclin-mediated apoptosis” value (HEK-293 cells [2]) was “apoptosis was not inhibited”.

For “5′-CTCGGTGACTTATCCTGTG-3′ (listed as DNA, chemistry not given here) [PPAR-α sense oligonucleotide]”, the “changes … (viability, morphology)” value (HEK-293 cells [4]) was “no marked changes”.
